From PubChem BioAssay AID1963831 (Molecular Pharmacology Branch, DTP, NCI, 2024)

Tested on: 889142-216-R-J1-PDC complex spheroid viability
Assay: Anticancer human tumor 889142-216-R-J1-PDC patient-derived bladder carcinoma cell line growth inhibition [POLQ]
Details: for IC50: curve of first compound; for viability, T/C: stronger effect = lower value
How it was run: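 Three-cell-type spheroids modelling solid tumor plus stroma served as the readout system; POL inhibitors were tested individually and in combination, concentration ranges set by clinical Cmax where known.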

[1] = second compound 0.0316 µM, first compound 0.0316 µM
[2] = second compound 0.0316 µM, first compound 0.1 µM
[3] = second compound 0.0316 µM, first compound 0.316 µM
[4] = second compound 0.0316 µM, first compound 1 µM
[5] = second compound 0.0316 µM, first compound 3.16 µM
[6] = second compound 0.0316 µM, first compound 10 µM
[7] = second compound 0.1 µM, first compound 0.0316 µM
[8] = second compound 0.1 µM, first compound 0.1 µM
[9] = second compound 0.1 µM, first compound 0.316 µM
[10] = second compound 0.1 µM, first compound 1 µM
[11] = second compound 0.1 µM, first compound 3.16 µM
[12] = second compound 0.1 µM, first compound 10 µM
[13] = second compound 0.316 µM, first compound 0.0316 µM
[14] = second compound 0.316 µM, first compound 0.1 µM
[15] = second compound 0.316 µM, first compound 0.316 µM
[16] = second compound 0.316 µM, first compound 1 µM
[17] = second compound 0.316 µM, first compound 3.16 µM
[18] = second compound 0.316 µM, first compound 10 µM
[19] = second compound 1 µM, first compound 0.0316 µM
[20] = second compound 1 µM, first compound 0.1 µM
[21] = second compound 1 µM, first compound 0.316 µM
[22] = second compound 1 µM, first compound 1 µM
[23] = second compound 1 µM, first compound 3.16 µM
[24] = second compound 1 µM, first compound 10 µM
[25] = second compound 3.16 µM, first compound 0.0316 µM
[26] = second compound 3.16 µM, first compound 0.1 µM
[27] = second compound 3.16 µM, first compound 0.316 µM
[28] = second compound 3.16 µM, first compound 1 µM
[29] = second compound 3.16 µM, first compound 3.16 µM
[30] = second compound 3.16 µM, first compound 10 µM
[31] = second compound 10 µM, first compound 0.0316 µM
[32] = second compound 10 µM, first compound 0.1 µM
[33] = second compound 10 µM, first compound 0.316 µM
[34] = second compound 10 µM, first compound 1 µM
[35] = second compound 10 µM, first compound 3.16 µM
[36] = second compound 10 µM, first compound 10 µM
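Also: spheroids exposed to compounds for seven days.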
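For viability, T/C in this document: 100% = DMSO vehicle control viability.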

`O=C(c1cc(Cc2n[nH]c(=O)c3ccccc23)ccc1F)N1CCN(C(=O)C2CC2)CC1` + Cc1cccc(N(C)C(=O)C2C(O)CCN2c2nc(C)cc(C(F)(F)F)c2C#N)c1 showed an IC50 (second compound 0.0316 µM) of over 10 µM, an IC50 (second compound 0.1 µM) of over 10 µM and an IC50 (second compound 0.316 µM) of over 10 µM. The IC50 (second compound 1 µM) was over 10 µM, the IC50 (second compound 3.16 µM) was over 10 µM and the IC50 (second compound 10 µM) was over 10 µM. It also gave a viability, T/C [1] of 103%, a viability, T/C [2] of 99.7% and a viability, T/C [3] of 108%. For the same compound, the viability, T/C [4] was 83.3%, the viability, T/C [5] was 70.1% and the viability, T/C [6] was 65%. The viability, T/C [7] was 106%, the viability, T/C [8] was 116% and the viability, T/C [9] was 95%. It also gave a viability, T/C [10] of 98.2%, a viability, T/C [11] of 87.9% and a viability, T/C [12] of 63.6%. The viability, T/C [13] was 92.2%, the viability, T/C [14] was 98.8% and the viability, T/C [15] was 97.5%. For the same compound, the viability, T/C [16] was 80.8%, the viability, T/C [17] was 72% and the viability, T/C [18] was 64.3%. The viability, T/C [19] was 105%, the viability, T/C [20] was 98.5% and the viability, T/C [21] was 84.7%. It also gave a viability, T/C [22] of 77.3%, a viability, T/C [23] of 88.5% and a viability, T/C [24] of 68.5%. For the same compound, the viability, T/C [25] was 91.3%, the viability, T/C [26] was 91.7% and the viability, T/C [27] was 88.8%. For the same compound, the viability, T/C [28] was 81.5%, the viability, T/C [29] was 73.7% and the viability, T/C [30] was 52.9%. The viability, T/C [31] was 81.8%, the viability, T/C [32] was 81.3% and the viability, T/C [33] was 68.7%. For the same compound, the viability, T/C [34] was 85.8%, the viability, T/C [35] was 70.1% and the viability, T/C [36] was 52.4%.

For `CCCS(=O)(=O)Nc1ccc(F)c(C(=O)c2c[nH]c3ncc(-c4ccc(Cl)cc4)cc23)c1F` + COC1C(OC(N)=O)C(O)C(Oc2ccc3c(O)c(NC(=O)c4ccc(O)c(CC=C(C)C)c4)c(=O)oc3c2C)OC1(C)C, the IC50 (second compound 0.0316 µM) was 5.53 µM, the IC50 (second compound 0.1 µM) was 4.99 µM and the IC50 (second compound 0.316 µM) was 7.02 µM. The IC50 (second compound 1 µM) was 6.23 µM, the IC50 (second compound 3.16 µM) was 5.26 µM and the IC50 (second compound 10 µM) was 6.11 µM. It also gave a viability, T/C [1] of 108%, a viability, T/C [2] of 108% and a viability, T/C [3] of 93.5%. The viability, T/C [4] was 109%, the viability, T/C [5] was 62.2% and the viability, T/C [6] was 36.9%. The viability, T/C [7] was 126%, the viability, T/C [8] was 110% and the viability, T/C [9] was 98.5%. For the same compound, the viability, T/C [10] was 91.9%, the viability, T/C [11] was 55% and the viability, T/C [12] was 34.9%. It also gave a viability, T/C [13] of 126%, a viability, T/C [14] of 98.3% and a viability, T/C [15] of 92.8%. The viability, T/C [16] was 99.5%, the viability, T/C [17] was 69.7% and the viability, T/C [18] was 39.6%. It also gave a viability, T/C [19] of 101%, a viability, T/C [20] of 109% and a viability, T/C [21] of 104%. For the same compound, the viability, T/C [22] was 93.9%, the viability, T/C [23] was 64.5% and the viability, T/C [24] was 40%. For the same compound, the viability, T/C [25] was 116%, the viability, T/C [26] was 115% and the viability, T/C [27] was 98%. For the same compound, the viability, T/C [28] was 80.4%, the viability, T/C [29] was 63.9% and the viability, T/C [30] was 34.6%. The viability, T/C [31] was 104%, the viability, T/C [32] was 105% and the viability, T/C [33] was 95.5%. For the same compound, the viability, T/C [34] was 90%, the viability, T/C [35] was 68.2% and the viability, T/C [36] was 36.2%.

`COc1cc2cc(C(=O)CCC(=O)O)sc2cc1OC` + Cc1cccc(N(C)C(=O)C2C(O)CCN2c2nc(C)cc(C(F)(F)F)c2C#N)c1 gave an IC50 (second compound 0.0316 µM) of over 10 µM, an IC50 (second compound 0.1 µM) of over 10 µM and an IC50 (second compound 0.316 µM) of over 10 µM. The IC50 (second compound 1 µM) was over 10 µM, the IC50 (second compound 3.16 µM) was over 10 µM and the IC50 (second compound 10 µM) was over 10 µM. It also gave a viability, T/C [1] of 85.5%, a viability, T/C [2] of 127% and a viability, T/C [3] of 89.6%. It also gave a viability, T/C [4] of 99.1%, a viability, T/C [5] of 104% and a viability, T/C [6] of 76.6%. It also gave a viability, T/C [7] of 76.5%, a viability, T/C [8] of 101% and a viability, T/C [9] of 92.7%. It also gave a viability, T/C [10] of 115%, a viability, T/C [11] of 104% and a viability, T/C [12] of 90.6%. For the same compound, the viability, T/C [13] was 109%, the viability, T/C [14] was 92.6% and the viability, T/C [15] was 72.3%. For the same compound, the viability, T/C [16] was 104%, the viability, T/C [17] was 132% and the viability, T/C [18] was 74.5%. It also gave a viability, T/C [19] of 100%, a viability, T/C [20] of 114% and a viability, T/C [21] of 97.9%. For the same compound, the viability, T/C [22] was 96.9%, the viability, T/C [23] was 102% and the viability, T/C [24] was 66.4%. It also gave a viability, T/C [25] of 96.8%, a viability, T/C [26] of 85.8% and a viability, T/C [27] of 89.7%. For the same compound, the viability, T/C [28] was 94.4%, the viability, T/C [29] was 104% and the viability, T/C [30] was 78.9%. It also gave a viability, T/C [31] of 108%, a viability, T/C [32] of 88.5% and a viability, T/C [33] of 78.5%. The viability, T/C [34] was 80.1%, the viability, T/C [35] was 72.3% and the viability, T/C [36] was 65.6%.

`CC1COCCN1c1cc(-c2ccnn2C)c2ccnc(-c3ccn[nH]3)c2n1` (stereo not drawn) + Nc1ccc(C#CCN(C(=O)Cc2ncc(C(F)(F)F)cc2C(F)(F)F)c2ccc(F)cc2)nn1 was tested, and the IC50 (second compound 0.0316 µM) was 0.386 µM, the IC50 (second compound 0.1 µM) was 0.349 µM and the IC50 (second compound 0.316 µM) was 0.349 µM. It also gave an IC50 (second compound 1 µM) of 0.133 µM, an IC50 (second compound 3.16 µM) of 0.353 µM and an IC50 (second compound 10 µM) of 0.557 µM. The viability, T/C [1] was 69.5%, the viability, T/C [2] was 60.1% and the viability, T/C [3] was 53.7%. It also gave a viability, T/C [4] of 41%, a viability, T/C [5] of 32.8% and a viability, T/C [6] of 32.7%. For the same compound, the viability, T/C [7] was 71.8%, the viability, T/C [8] was 60% and the viability, T/C [9] was 48.6%. For the same compound, the viability, T/C [10] was 44.5%, the viability, T/C [11] was 32.2% and the viability, T/C [12] was 24.6%. For the same compound, the viability, T/C [13] was 73.3%, the viability, T/C [14] was 54.6% and the viability, T/C [15] was 52.7%. For the same compound, the viability, T/C [16] was 42.7%, the viability, T/C [17] was 36.6% and the viability, T/C [18] was 25.5%. For the same compound, the viability, T/C [19] was 77.7%, the viability, T/C [20] was 45.8% and the viability, T/C [21] was 47.8%. It also gave a viability, T/C [22] of 39.3%, a viability, T/C [23] of 38.2% and a viability, T/C [24] of 27.3%. The viability, T/C [25] was 62.9%, the viability, T/C [26] was 57.2% and the viability, T/C [27] was 51%. The viability, T/C [28] was 43.2%, the viability, T/C [29] was 38.9% and the viability, T/C [30] was 32.3%. It also gave a viability, T/C [31] of 72.4%, a viability, T/C [32] of 68.2% and a viability, T/C [33] of 56.3%. It also gave a viability, T/C [34] of 42.3%, a viability, T/C [35] of 38.1% and a viability, T/C [36] of 31.7%.
